The record followed here is ChEMBL document CHEMBL1150907, “Epolones: novel sesquiterpene-tropolones from fungus OS-F69284 that induce erythropoietin in human cells” (1998).

Experiment [1] concerns Hep 3B2. The experiment can be described thus: Induction of human erythropoietin gene expression in human Hep3B cells over expressing human EPO assessed as concentration required to produce 5-fold induction ratio by luciferase reporter gene assay relative to control. Format: functional. In general terms: Reporter assays use an easily measured gene product as a stand-in for the process of interest.

In experiment [2] the test system is Hep 3B2. Briefly: Induction of human erythropoietin gene expression in human Hep3B cells over expressing human EPO assessed as maximum induction ratio at 4.3 uM by luciferase reporter gene assay relative to control. Format: functional.
The subject of experiment [3] is Hep 3B2. The experiment can be described thus: Induction of erythropoietin secretion in human Hep3B cells expressing human EPO at 10 uM by ELISA. Format: functional. Background: ELISA stands for enzyme-linked immunosorbent assay.
Experiment [4] can be described thus: Cytotoxicity against human Hep3B cells after 48 hrs by MTT assay. Format: functional, Hep 3B2. (In general: Tetrazolium dyes change colour on reduction, which living cells bring about.)
Experiment [5] has as its system Hep 3B2. Briefly: Induction of human erythropoietin gene expression in human Hep3B cells over expressing human EPO assessed as maximum induction ratio at 6.5 uM by luciferase reporter gene assay relative to control. Format: functional.

A value given as a limit tells only on which side of the number the result lay.

As to `Cc1cc(=O)c(O)cc2c1C[C@H]1CC(C)(C)/C=C/C[C@@]3(C)Oc4cc(O)c(=O)cc(C)c4C[C@@H]3C[C@H](O)[C@]1(C)O2` [PYCNIDIONE], the results for the Activity in the experiment on Hep 3B2 [1] and in the experiment with Hep 3B2 [3] were 1.6 µM and 34 mU/ml, respectively. Also, the Ratio in the experiment on Hep 3B2 [2] is listed as 19. Moreover, the IC90 in experiment [4] is greater than 40 µM.

For `C/C1=C\CC(C)(C)/C=C/C[C@@]2(C)Oc3cc(O)c(=O)cc(C)c3C[C@@H]2C[C@H]1O` [EPOLONE B], the Activity with Hep 3B2 [1] came to 1.5 µM; in the experiment with Hep 3B2 [3] it was 40 mU/ml. The same molecule yielded an IC90 in experiment [4] greater than 40 µM. Besides, the Ratio in the experiment on Hep 3B2 [5] is on record as 22.

`Cc1cc(=O)c(O)cc2c1C[C@H]1CC(C)(C)/C=C/C[C@@]3(C)Oc4cc(O)cc(C)c4C[C@@H]3C[C@H](O)[C@]1(C)O2` [EPOLONE A]: the Activity in the experiment with Hep 3B2 [1] is 1 µM; with Hep 3B2 [3] it was 45 mU/ml. Also, the Ratio in the experiment on Hep 3B2 [2] turned out to be 26. Also, the IC90 in experiment [4] was greater than 40 µM.

Broadly, the IC90 is the concentration at which the effect reaches the 90% level. A low value points to an effect from little substance.
